Bridge positions count the residues as written; N and C are the ends. Square brackets hold non-standard residues; d marks the D form. Peptide text beside a SMILES is read from it. * marks the point of attachment. Pro(4R-NH2) = N[C@H]1CN[C@H](C(=O)O)C1; X2 = N=C(N)N1C[C@H](O)C[C@H]1C(=O)*; Gly(N-2-aminoethyl) = NCCNCC(=O)O; Hyp = O=C(O)[C@@H]1C[C@@H](O)CN1; Gly(N(CH2)3NH2) = NCCCNCC(=O)O; Pen = CC(C)(S)[C@H](N)C(=O)O; dDab = NCC[C@@H](N)C(=O)O; Nle = CCCC[C@H](N)C(=O)O; Dab = NCC[C@H](N)C(=O)O; X3 = NCCN(CCN)CC(=O)*
What was measured:
[1] = system: Escherichia coli ATCC 25922; conditions: ATCC 25922
Outline: (§1)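 Standardized inocula (0.5 McFarland in saline, then diluted in MHII broth to approximately 5×10^5 CFU/mL) were exposed to two-fold dilution series of each peptide in the presence of polysorbate 80 (0.002% final).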

[2] = system: Escherichia coli MCR-1 Af 45; conditions: MCR-1 Af 45
Outline: as §1

[3] = system: Klebsiella pneumoniae SSI3010; conditions: SSI3010
Outline: as §1

[4] = system: human red blood cells (hRBC); test: Hemolysis of human red blood cells; assay type: cell-based; conditions: red cells of human, 1 h
Outline: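 Percent hemolysis is OD540 of peptide-treated supernatant relative to water-lysed cells. Each peptide was tested at 200 μg/mL against 20% (v/v) washed human erythrocytes. Incubation was 1 h at 37 °C, 300 rpm.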

| SMILES | Escherichia coli ATCC 25922 MIC [1] | Escherichia coli MCR-1 Af 45 MIC [2] | Klebsiella pneumoniae SSI3010 MIC [3] | Hemolysis at 0.2 g/L [4] |
| --- | --- | --- | --- | --- |
| CC[C@H](C)[C@H](NC(=O)CN(CCN)C(=O)[C@@H](NC(=O)[C@@H]1C[C@@H](O)CN1C(=N)N)C(C)C)C(=O)N[C@H](C(=O)N[C@@H](Cc1ccc(O)cc1)C(=O)N[C@@H]1C(=O)N[C@@H](CC(N)=O)C(=O)N[C@@H](CCCNC(=N)N)C(=O)N[C@@H](CCN)C(=O)N[C@@H]([C@@H](C)O)C(=O)N[C@H](CCN)C(=O)N[C@@H](CCCCN)C(=O)N[C@H](C(=O)N[C@@H](CCN)C(=O)N[C@@H](CCCNC(=N)N)C(=O)N[C@@H](Cc2ccc(O)cc2)C(=O)O)CSSC1(C)C)[C@@H](C)O [Example 37, Gua-Hyp-Val-Ndab-Ile-Thr-Tyr-Pen-Asn-Arg-Dab-Thr-^DDab-Lys-Cys-Dab-Arg-Tyr] (X2-V[Gly(N-2-aminoethyl)]ITY[Pen]NR[Dab]T[dDab]KC[Dab]RY-OH; disulfide 6-13) | 0.25 µg/mL | 0.0625 µg/mL | 0.25 µg/mL | 0% |
| CC[C@H](C)[C@H](NC(=O)[C@@H]1C[C@@H](O)CN1C(=O)[C@@H](NC(=O)[C@@H]1C[C@@H](N)CN1C(=N)N)C(C)C)C(=O)N[C@H](C(=O)N[C@@H](Cc1ccc(O)cc1)C(=O)N[C@@H]1C(=O)N[C@@H](CC(N)=O)C(=O)N[C@@H](CCCNC(=N)N)C(=O)N[C@@H](CCN)C(=O)N[C@@H]([C@@H](C)O)C(=O)N[C@H](CCN)C(=O)N[C@@H](CCCCN)C(=O)N[C@H](C(=O)N[C@@H](CCN)C(=O)N[C@@H](CCCNC(=N)N)C(=O)N[C@@H](Cc2ccc(O)cc2)C(=O)O)CSSC1(C)C)[C@@H](C)O [Example 38, Gua-Pro((4R)NH2)-Val-Hyp-Ile-Thr-Tyr-Pen-Asn-Arg-Dab-Thr-^DDab-Lys-Cys-Dab-Arg-Tyr] (HELM PEPTIDE1{[N=C(N)N1C[C@H](N)C[C@H]1C(=O)[*:2]].V.[Hyp].I.T.Y.[Pen].N.R.[Dab].T.[NCC[C@@H](N[*:1])C(=O)[*:2]].K.C.[Dab].R.Y}$PEPTIDE1,PEPTIDE1,7:R3-14:R3$$$V2.0) | 0.25 µg/mL | 0.0625 µg/mL | 0.125 µg/mL | 0% |
| CCCC[C@H](NC(=O)[C@H](CCCNC(=N)N)NC(=O)[C@H](CCN)NC(=O)[C@@H]1CSSC(C)(C)[C@H](NC(=O)[C@H](Cc2ccc(O)cc2)NC(=O)[C@@H](NC(=O)[C@@H](NC(=O)[C@@H]2CCCN2C(=O)[C@@H](NC(=O)CN(CCN)CCN)C(C)C)[C@@H](C)CC)[C@@H](C)CC)C(=O)N[C@@H](CC(N)=O)C(=O)N[C@@H](CCCNC(=N)N)C(=O)N[C@@H](CCCNC(=N)N)C(=O)N[C@@H]([C@@H](C)O)C(=O)N[C@H](CCN)C(=O)N[C@@H](CCCCN)C(=O)N1)C(=O)O [Example 39, Bis(2aminoethyl)Gly-Val-Pro-Ile-Ile-Tyr-Pen-Asn-Arg-Arg-Thr-^DDab-Lys-Cys-Dab-Arg-Nle] (HELM PEPTIDE1{[NCCN(CCN)CC(=O)[*:2]].V.P.I.I.Y.[Pen].N.R.R.T.[NCC[C@@H](N[*:1])C(=O)[*:2]].K.C.[Dab].R.[Nle]}$PEPTIDE1,PEPTIDE1,7:R3-14:R3$$$V2.0) | 0.0625 µg/mL | ≤0.03125 µg/mL | 0.0625 µg/mL | 0% |
| CCCC[C@H](NC(=O)[C@H](CCCNC(=N)N)NC(=O)[C@H](CCC(N)=O)NC(=O)[C@@H]1CSSC(C)(C)[C@H](NC(=O)[C@H](Cc2ccc(O)cc2)NC(=O)[C@@H](NC(=O)[C@@H](NC(=O)[C@@H]2C[C@@H](N)CN2C(=O)[C@@H](NC(=O)CN(CCN)CCN)C(C)C)[C@@H](C)CC)[C@@H](C)CC)C(=O)N[C@@H](CC(N)=O)C(=O)N[C@@H](CCCNC(=N)N)C(=O)N[C@@H](CCN)C(=O)N[C@@H]([C@@H](C)O)C(=O)N[C@H](CCN)C(=O)N[C@@H](CCCCN)C(=O)N1)C(=O)O [Example 40, Bis(2aminoethyl)Gly-Val-Pro((4R)NH2)-Ile-Ile-Tyr-Pen-Asn-Arg-Dab-Thr-DDab-Lys-Cys-Gln-Arg-Nle] (X3-V[Pro(4R-NH2)]IIY[Pen]NR[Dab]T[dDab]KCQR[Nle]-OH; disulfide 6-13) | 0.125 µg/mL | 0.0625 µg/mL | 0.25 µg/mL | 0% |
| CC[C@H](C)[C@H](NC(=O)[C@@H]1C[C@@H](O)CN1C(=O)[C@@H](NC(=O)[C@@H]1C[C@@H](O)CN1C(=O)[C@@H](N)CCCCN)C(C)C)C(=O)N[C@H](C(=O)N[C@@H](Cc1ccc(O)cc1)C(=O)N[C@@H]1C(=O)N[C@@H](CC(N)=O)C(=O)N[C@@H](CCCNC(=N)N)C(=O)N[C@@H](CCN)C(=O)N[C@@H]([C@@H](C)O)C(=O)N[C@H](CCN)C(=O)N[C@@H](CCCCN)C(=O)N[C@H](C(=O)N[C@@H](CCN)C(=O)N[C@@H](CCCNC(=N)N)C(=O)N[C@@H](Cc2ccc(O)cc2)C(=O)O)CSSC1(C)C)[C@@H](C)O [Example 41, Lys-Hyp-Val-Hyp-Ile-Thr-Tyr-Pen-Asn-Arg-Dab-Thr-^DDab-Lys-Cys-Dab-Arg-Tyr] (HELM PEPTIDE1{K.[Hyp].V.[Hyp].I.T.Y.[Pen].N.R.[Dab].T.[NCC[C@@H](N[*:1])C(=O)[*:2]].K.C.[Dab].R.Y}$PEPTIDE1,PEPTIDE1,8:R3-15:R3$$$V2.0) | 0.125 µg/mL | 0.0625 µg/mL | 0.25 µg/mL | 0% |
| CC[C@H](C)[C@H](NC(=O)[C@@H]1C[C@@H](O)CN1C(=O)[C@@H](NC(=O)[C@@H]1C[C@@H](O)CN1C(=O)CNCCCN)C(C)C)C(=O)N[C@H](C(=O)N[C@@H](Cc1ccc(O)cc1)C(=O)N[C@@H]1C(=O)N[C@@H](CC(N)=O)C(=O)N[C@@H](CCCNC(=N)N)C(=O)N[C@@H](CCN)C(=O)N[C@@H]([C@@H](C)O)C(=O)N[C@H](CCN)C(=O)N[C@@H](CCCCN)C(=O)N[C@H](C(=O)N[C@@H](CCN)C(=O)N[C@@H](CCCNC(=N)N)C(=O)N[C@@H](Cc2ccc(O)cc2)C(=O)O)CSSC1(C)C)[C@@H](C)O [Example 42, Norn-Hyp-Val-Hyp-Ile-Thr-Tyr-Pen-Asn-Arg-Dab-Thr-^DDab-Lys-Cys-Dab-Arg-Tyr] (HELM PEPTIDE1{[NCCCNCC(=O)[*:2]].[Hyp].V.[Hyp].I.T.Y.[Pen].N.R.[Dab].T.[NCC[C@@H](N[*:1])C(=O)[*:2]].K.C.[Dab].R.Y}$PEPTIDE1,PEPTIDE1,8:R3-15:R3$$$V2.0) | 0.125 µg/mL | 0.125 µg/mL | 0.25 µg/mL | 0% |
| CC[C@H](C)[C@H](NC(=O)[C@@H]1C[C@@H](N)CN1C(=O)[C@@H](NC(=O)[C@@H]1C[C@@H](O)CN1C(=O)[C@@H](N)CCCCN)C(C)C)C(=O)N[C@H](C(=O)N[C@@H](Cc1ccc(O)cc1)C(=O)N[C@@H]1C(=O)N[C@@H](CC(N)=O)C(=O)N[C@@H](CCCNC(=N)N)C(=O)N[C@@H](CCN)C(=O)N[C@@H]([C@@H](C)O)C(=O)N[C@H](CCN)C(=O)N[C@@H](CCCCN)C(=O)N[C@H](C(=O)N[C@@H](CCN)C(=O)N[C@@H](CCCNC(=N)N)C(=O)N[C@@H](Cc2ccc(O)cc2)C(=O)O)CSSC1(C)C)[C@@H](C)O [Example 43, Lys-Hyp-Val-Pro((4R)NH2)-Ile-Thr-Tyr-Pen-Asn-Arg-Dab-Thr-^DDab-Lys-Cys-Dab-Arg-Tyr] (HELM PEPTIDE1{K.[Hyp].V.[N[C@@H]1C[C@@H](C(=O)[*:2])N([*:1])C1].I.T.Y.[Pen].N.R.[Dab].T.[NCC[C@@H](N[*:1])C(=O)[*:2]].K.C.[Dab].R.Y}$PEPTIDE1,PEPTIDE1,8:R3-15:R3$$$V2.0) | 0.125 µg/mL | 0.125 µg/mL | 0.125 µg/mL | 0% |
| CC[C@H](C)[C@H](NC(=O)[C@@H]1C[C@@H](N)CN1C(=O)[C@@H](NC(=O)[C@@H]1C[C@@H](O)CN1C(=O)CNCCN)C(C)C)C(=O)N[C@H](C(=O)N[C@@H](Cc1ccc(O)cc1)C(=O)N[C@@H]1C(=O)N[C@@H](CC(N)=O)C(=O)N[C@@H](CCCNC(=N)N)C(=O)N[C@@H](CCN)C(=O)N[C@@H]([C@@H](C)O)C(=O)N[C@H](CCN)C(=O)N[C@@H](CCCCN)C(=O)N[C@H](C(=O)N[C@@H](CCN)C(=O)N[C@@H](CCCNC(=N)N)C(=O)N[C@@H](Cc2ccc(O)cc2)C(=O)O)CSSC1(C)C)[C@@H](C)O [Example 44, Ndab-Hyp-Val-Pro((4R)NH2)-Ile-Thr-Tyr-Pen-Asn-Arg-Dab-Thr-^DDab-Lys-Cys-Dab-Arg-Tyr] (H-[Gly(N-2-aminoethyl)][Hyp]V[Pro(4R-NH2)]ITY[Pen]NR[Dab]T[dDab]KC[Dab]RY-OH; disulfide 8-15) | 0.25 µg/mL | 0.125 µg/mL | 0.25 µg/mL | 0% |
| CC[C@H](C)[C@H](NC(=O)[C@@H]1C[C@@H](N)CN1C(=O)[C@@H](NC(=O)[C@@H]1C[C@@H](O)CN1C(=O)CNCCCN)C(C)C)C(=O)N[C@H](C(=O)N[C@@H](Cc1ccc(O)cc1)C(=O)N[C@@H]1C(=O)N[C@@H](CC(N)=O)C(=O)N[C@@H](CCCNC(=N)N)C(=O)N[C@@H](CCN)C(=O)N[C@@H]([C@@H](C)O)C(=O)N[C@H](CCN)C(=O)N[C@@H](CCCCN)C(=O)N[C@H](C(=O)N[C@@H](CCN)C(=O)N[C@@H](CCCNC(=N)N)C(=O)N[C@@H](Cc2ccc(O)cc2)C(=O)O)CSSC1(C)C)[C@@H](C)O [Example 45, Norn-Hyp-Val-Pro((4R)NH2)-Ile-Thr-Tyr-Pen-Asn-Arg-Dab-Thr-^DDab-Lys-Cys-Dab-Arg-Tyr] (H-[Gly(N(CH2)3NH2)][Hyp]V[Pro(4R-NH2)]ITY[Pen]NR[Dab]T[dDab]KC[Dab]RY-OH; disulfide 8-15) | 0.0625 µg/mL | 0.0625 µg/mL | 0.125 µg/mL | 0% |
